Reference: patent US9194802B2, “Luminescent probes having a phenanthridinyl antenna, and methods of use” (REGENTS OF THE UNIVERSITY OF MINNESOTA, priority 2012, dated 2015)

What was measured:
CTP = assay: Stern-Volmer time-delayed luminescence quenching titration with CTP; type: binding; conditions: excitation 346 nm, time-delay 0.1 ms, probe 10 μM, water, Tris 10 mM, pH 7.0, 20° C., n=3, emission integrated 450-650 nm (Tb) or 550-750 (Eu)
Protocol: (§1) Unless otherwise noted, starting materials were obtained from commercial suppliers and used without further purification. Water was deionized and further purified by a Millipore cartridge system (resistivity 1.8×10^7Ω). All organic extracts were dried over anhydrous MgSO4 and solvents were removed with a rotary evaporator. Flash chromatography was performed on Salicycle Silica Gel (230-400 mesh) or Brockmann activated aluminum oxide (neutral, 60 mesh). ^1H NMR spectra were recorded on a Varian 300 or Varian 500 at 300 MHz or 500 MHz, respectively, and ^13C NMR spectra on a Varian 300 at 75 MHz; the residual solvent peak was used as an internal reference. Data for ^1H NMR are recorded as follows: chemical shift (δ, ppm), multiplicity (s, singlet; br s, broad singlet; d, doublet, t, triplet; q, quartet; m, multiplet), integration, coupling constant (Hz). Data for ^13C NMR are reported in terms of chemical shift (δ, ppm). Mass spectra (LR=lo2w resolution; HR=high resolution; MS-ESI=electrospray mass spectrometry) were recorded on a Bruker BioTOF II. Purity of lanthanide complexes was evaluated by high performance liquid chromatography (HPLC) using a Varian Microsorb 300-5 C18 250 mm×4.6 mm at a flow rate was 1.0 mL/min (see supporting information for spectra and solvent gradients). UV-Vis data was obtained on a Cary Bio 100 UV-Vis Spectrophotometer. Data was collected over the range of 200-800 nm. Fluorescence data was acquired on a Varian Cary Eclipse Fluorescence Spectrophotometer using a quartz cell with a path length of 10 mm, excitation slit width of 5 nm and emission slit width of 5 nm at T=20° C. Solutions were not degased prior to measurement of their luminescence spectra and lifetimes.

UMP = assay: Stern-Volmer time-delayed luminescence quenching titration with UMP; type: binding; conditions: excitation 346 nm, time-delay 0.1 ms, probe 10 μM, water, Tris 10 mM, pH 7.0, 20° C., n=3, emission integrated 450-650 nm (Tb) or 550-750 (Eu)
Protocol: as §1

ATP = assay: Stern-Volmer time-delayed luminescence quenching titration with ATP; type: binding; conditions: for Stern-Volmer constant KSV with ATP: excitation 346 nm, time-delay 0.1 ms, probe 10 μM, water, Tris 10 mM, pH 7.0, 20° C., n=3, emission integrated 450-650 nm (Tb) or 550-750 (Eu); for log KSV for ATP: from Stern-Volmer constants of Table 2
Protocol: as §1

GTP = assay: Stern-Volmer time-delayed luminescence quenching titration with GTP; type: binding; conditions: for Stern-Volmer constant KSV with GTP: excitation 346 nm, time-delay 0.1 ms, probe 10 μM, water, Tris 10 mM, pH 7.0, 20° C., n=3, emission integrated 450-650 nm (Tb) or 550-750 (Eu)
Protocol: as §1

GMP = assay: Stern-Volmer time-delayed luminescence quenching titration with GMP; type: binding; conditions: excitation 346 nm, time-delay 0.1 ms, probe 10 μM, water, Tris 10 mM, pH 7.0, 20° C., n=3, emission integrated 450-650 nm (Tb) or 550-750 (Eu)
Protocol: as §1

CDP = assay: Stern-Volmer time-delayed luminescence quenching titration with CDP; type: binding; conditions: excitation 346 nm, time-delay 0.1 ms, probe 10 μM, water, Tris 10 mM, pH 7.0, 20° C., n=3, emission integrated 450-650 nm (Tb) or 550-750 (Eu)
Protocol: as §1

UDP = assay: Stern-Volmer time-delayed luminescence quenching titration with UDP; type: binding; conditions: excitation 346 nm, time-delay 0.1 ms, probe 10 μM, water, Tris 10 mM, pH 7.0, 20° C., n=3, emission integrated 450-650 nm (Tb) or 550-750 (Eu)
Protocol: as §1

[1] = test system: PKAc, the catalytic domain of protein kinase A; assay: Continuous monitoring of ATP to ADP conversion during phosphorylation of KRRWSAP-NH2 by PKAc; type: biochemical; conditions: both probes 10 μM, PKAc 1 μM, peptide 1.5 mM, ATP 1 mM, 37° C., 0-6 hours; Tb at 490 and 545 nm, Eu at 688 and 700 nm
Protocol: FIG. 29 illustrates an exemplary embodiment of continuous monitoring of ATP to ADP conversion during enzymatic phosphorylation of the peptide KRRWSAP-NH2 by its kinase PKAc. Experimental conditions: [Tb-DOTAm-Phen]^3+=10 μM, Eu-DOTA-Phen=10 μM, [PKAc]=1 μM, [amide-blocked KRRWSAP-NH2]=1.5 mM, [ATP]=1 mM, [Tris]=10 mM, [Brij-35]=0.05%, [MgCl2]=50 mM, [EGTA]=5 mM, [DTT]=2 mM, pH 7.0, T=37° C., excitation at 346 nm, time delay=0.1 ms. Reaction time: 0-6 hours.
The ability of the two lanthanide probes to monitor enzymatic reactions involving ATP or GTP directly and continuously was evaluated with PKAc, the catalytic domain of protein kinase A. PKAc is a serine-threonine protein kinase that is actively studied as a biological target in cancer therapy (Naviglio et al., Expert Opin. Ther. Targets, 2009, 13, 83-92). […] Phosphorylation of the substrate and conversion of ATP to ADP takes place only when all components are present in the buffer. […] [Tb-DOTAm-Phen]^3+ and Eu-DOTA-Phen are thus able to directly monitor kinases' activities by time-gated luminescence spectroscopy. […] It should be noted, however, that these probes are not intended for use in cells as the presence of more than two purine nucleotides would make the results hard to interpret.

AMP = assay: Stern-Volmer time-delayed luminescence quenching titration with AMP; type: binding; conditions: for Stern-Volmer constant KSV with AMP: excitation 346 nm, time-delay 0.1 ms, probe 10 μM, water, Tris 10 mM, pH 7.0, 20° C., n=3, emission integrated 450-650 nm (Tb) or 550-750 (Eu)
Protocol: as §1

CMP = assay: Stern-Volmer time-delayed luminescence quenching titration with CMP; type: binding; conditions: excitation 346 nm, time-delay 0.1 ms, probe 10 μM, water, Tris 10 mM, pH 7.0, 20° C., n=3, emission integrated 450-650 nm (Tb) or 550-750 (Eu)
Protocol: as §1

ADP = assay: Stern-Volmer time-delayed luminescence quenching titration with ADP; type: binding; conditions: for Stern-Volmer constant KSV with ADP: excitation 346 nm, time-delay 0.1 ms, probe 10 μM, water, Tris 10 mM, pH 7.0, 20° C., n=3, emission integrated 450-650 nm (Tb) or 550-750 (Eu)
Protocol: as §1

UTP = assay: Stern-Volmer time-delayed luminescence quenching titration with UTP; type: binding; conditions: excitation 346 nm, time-delay 0.1 ms, probe 10 μM, water, Tris 10 mM, pH 7.0, 20° C., n=3, emission integrated 450-650 nm (Tb) or 550-750 (Eu)
Protocol: as §1

GDP = assay: Stern-Volmer time-delayed luminescence quenching titration with GDP; type: binding; conditions: excitation 346 nm, time-delay 0.1 ms, probe 10 μM, water, Tris 10 mM, pH 7.0, 20° C., n=3, emission integrated 450-650 nm (Tb) or 550-750 (Eu)
Protocol: as §1

[2] = Dickins et al., J. Am. Chem. Soc., 2002; cited from earlier work

Tb-PhenDOTAm
Stern-Volmer constant KSV with CTP (CTP): 0.103 ± 0.007
Stern-Volmer constant KSV with CTP (CTP; listed as [Tb-DOTAm-Phen]^3+): 0.103(7)
Stern-Volmer constant KSV with UMP (UMP): 0.070 ± 0.004
Stern-Volmer constant KSV with UMP (UMP; listed as [Tb-DOTAm-Phen]^3+): 0.070(4)
time-gated luminescence quenched by ATP (ATP; 1 mM ATP): 59.7%
Stern-Volmer constant KSV with ATP (ATP): 1.28 ± 0.05
Stern-Volmer constant KSV with ATP (ATP; listed as [Tb-DOTAm-Phen]^3+): 1.28(5)
log KSV for ATP (ATP): 0.11
increase of apparent binding affinity for GTP over that of the neutral complex (12) (GTP; +3 charged probe (1) versus neutral complex (12)): 300 fold
Stern-Volmer constant KSV with GTP (GTP): 33.1 ± 0.1
Stern-Volmer constant KSV with GTP (GTP; listed as [Tb-DOTAm-Phen]^3+): 33.1(1)
Stern-Volmer constant KSV with GMP (GMP): 2.84 ± 0.01
Stern-Volmer constant KSV with GMP (GMP; listed as [Tb-DOTAm-Phen]^3+): 2.84(1)
Stern-Volmer constant KSV with CDP (CDP): 0.149 ± 0.009
Stern-Volmer constant KSV with CDP (CDP; listed as [Tb-DOTAm-Phen]^3+): 0.149(9)
Stern-Volmer constant KSV with UDP (UDP): 0.065 ± 0.007
Stern-Volmer constant KSV with UDP (UDP; listed as [Tb-DOTAm-Phen]^3+): 0.065(7)
time-gated luminescence as the PKAc reaction proceeds (ADP:ATP ratio increases) [1]: increases
phosphorescence quenched by AMP (AMP; 1 mM AMP): 31.0%
Stern-Volmer constant KSV with AMP (AMP): 0.397 ± 0.005
Stern-Volmer constant KSV with AMP (AMP; listed as [Tb-DOTAm-Phen]^3+): 0.397(5)
Stern-Volmer constant KSV with CMP (CMP): 0.139 ± 0.006
Stern-Volmer constant KSV with CMP (CMP; listed as [Tb-DOTAm-Phen]^3+): 0.139(6)
phosphorescence quenched by ADP (ADP; 1 mM ADP): 47.4%
Stern-Volmer constant KSV with ADP (ADP): 0.85 ± 0.02
Stern-Volmer constant KSV with ADP (ADP; listed as [Tb-DOTAm-Phen]^3+): 0.85(2)
Stern-Volmer constant KSV with UTP (UTP): 0.047 ± 0.002
Stern-Volmer constant KSV with UTP (UTP; listed as [Tb-DOTAm-Phen]^3+): 0.047(2)
Stern-Volmer constant KSV with GDP (GDP): 9.84 ± 0.05
Stern-Volmer constant KSV with GDP (GDP; listed as [Tb-DOTAm-Phen]^3+): 9.84(5)

O=C([O-])CN1CCN(CC(=O)[O-])CCN(CC(=O)O)CCN(CC(=O)[O-])CC1.[Gd+3] [Gd-DOTA]
log Ka with biphosphate [2]: 2.2

Eu-DOTA-Phen
Stern-Volmer constant KSV with CTP (CTP): 0.006(1)
Stern-Volmer constant KSV with UMP (UMP): 0.007(2)
Stern-Volmer constant KSV with ATP (ATP): 0.065(1)
log KSV for ATP (ATP): −1.2
Stern-Volmer constant KSV with GTP (GTP): 0.099(1)
Stern-Volmer constant KSV with GMP (GMP): 0.118(2)
Stern-Volmer constant KSV with CDP (CDP): 0.008(1)
Stern-Volmer constant KSV with UDP (UDP): 0.002(2)
time-gated luminescence as the PKAc reaction proceeds (ADP:ATP ratio increases) [1]: remains constant
Stern-Volmer constant KSV with AMP (AMP): 0.053(1)
Stern-Volmer constant KSV with CMP (CMP): 0.008(1)
Stern-Volmer constant KSV with ADP (ADP): 0.058(1)
Stern-Volmer constant KSV with UTP (UTP): 0.001(2)
Stern-Volmer constant KSV with GDP (GDP): 0.164(3)
